Source: ChEMBL document CHEMBL1201862, “PubChem BioAssay data set” (2004)
The source made the active and inactive calls.

How the values were obtained:
Assay type in all cases: functional
[1] = target: Cyclin-dependent kinase 8 (Homo sapiens, UniProt P49336); assay: Navigating the Kinome. Panel member name: CDK8
[2] = target: Serine/threonine-protein kinase PLK1 (Homo sapiens, UniProt P53350);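 note: PLK1 measured as one member of a kinome-wide profiling panel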
[3] = target: Insulin receptor (Homo sapiens, UniProt P06213);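 note: insulin receptor kinase tested as one member of a kinome-wide kinase panel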
[4] = target: Vascular endothelial growth factor receptor 2 (Homo sapiens, UniProt P35968)
[5] = target: Hepatocyte growth factor receptor (Homo sapiens, UniProt P08581);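 note: kinase panel profiling across the kinome, with MET as the panel member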
[6] = target: RAC-gamma serine/threonine-protein kinase (Homo sapiens, UniProt Q9Y243)
[7] = target: RAC-alpha serine/threonine-protein kinase (Homo sapiens, UniProt P31749);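 note: AKT1 affinity measured as one member of a kinome-wide kinase profiling panel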
[8] = target: Serine/threonine-protein kinase Chk1 (Homo sapiens, UniProt O14757);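 note: measured as one member of a kinome-wide kinase profiling panel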
[9] = target: Fibroblast growth factor receptor 1 (Homo sapiens, UniProt P11362)
[10] = target: Receptor-type tyrosine-protein kinase FLT3 (Homo sapiens, UniProt P36888);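 note: FLT3 was tested as one member of a kinome-wide kinase panel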
[11] = target: Serine/threonine-protein kinase PLK3 (Homo sapiens, UniProt Q9H4B4)
[12] = target: Serine/threonine-protein kinase pim-3 (Homo sapiens, UniProt Q86V86);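 note: value obtained as one member of a broad kinase panel profiling effort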
[13] = target: Serine/threonine-protein kinase PLK4 (Homo sapiens, UniProt O00444);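 note: PLK4 measured as one member of a kinome-wide kinase profiling panel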
[14] = target: Serine/threonine-protein kinase pim-1 (Homo sapiens, UniProt P11309)
[15] = target: Cyclin-dependent kinase 19 (Homo sapiens, UniProt Q9BWU1); assay: Navigating the Kinome. Panel member name: CDC2L6
[16] = target: ALK tyrosine kinase receptor (Homo sapiens, UniProt Q9UM73);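 note: ALK tested as one member of a kinase panel screen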
[17] = target: Mitogen-activated protein kinase 13 (Homo sapiens, UniProt O15264)
[18] = target: T1, Orexin receptor type 2 (Homo sapiens, UniProt O43614); assay: Counterscreen assay for antagonists of the orexin 1 receptor (OX1R; HCRTR1): Fluorescence-based cell-based dose response assay for antagonists of the orexin 2 receptor (OX2R; HCRTR2), run by assay provider.
[19] = target: T2, Orexin/Hypocretin receptor type 1 (Homo sapiens, UniProt O43613); assay: (§1) Fluorescence-based cell-based high throughput dose response assay for antagonists of the orexin 1 receptor (OX1R; HCRTR1). [Related pubchem assays (depositor defined):AID434989, AID435008, AID463079, AID485270, AID492963, AID492964, AID492965, AID493232, AID504717, AID504718]
T2 sequence (O43613 whole entry): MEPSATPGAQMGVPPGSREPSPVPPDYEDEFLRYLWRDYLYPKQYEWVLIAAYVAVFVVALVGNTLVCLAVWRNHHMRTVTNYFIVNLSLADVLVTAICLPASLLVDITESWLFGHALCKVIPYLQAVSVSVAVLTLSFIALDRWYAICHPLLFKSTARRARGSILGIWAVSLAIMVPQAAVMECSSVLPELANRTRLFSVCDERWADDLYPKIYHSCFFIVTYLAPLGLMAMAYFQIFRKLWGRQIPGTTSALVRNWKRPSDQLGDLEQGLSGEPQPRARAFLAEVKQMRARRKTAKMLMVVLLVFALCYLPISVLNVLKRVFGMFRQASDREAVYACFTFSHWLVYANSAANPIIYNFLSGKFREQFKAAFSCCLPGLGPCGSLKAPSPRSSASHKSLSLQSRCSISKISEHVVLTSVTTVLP

[20] = (§2) Counterscreen for antagonists of the orexin 1 receptor (OX1R; HCRTR1): Fluorescence-based cell-based high throughput dose response assay to identify antagonists of the parental CHO cell line. [Related pubchem assays (depositor defined):AID434989, AID435008, AID463079, AID485270, AID492963, AID492964, AID492965, AID493232, AID504699, AID504701]
[21] = system: CHO-K1; assay: as §2, with “Homogeneous time resolved fluorescence (HTRF)-based” for “Fluorescence-based”, “cell-based” for “cell-based high throughput”, “CHO-K1” for “CHO”; conditions: Cricetulus griseus;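 note: potency for inhibition of ATP-stimulated IP1 production as antagonists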
[22] = target: T1, Orexin receptor type 2; assay: Counterscreen assay for antagonists of the orexin 1 receptor (OX1R; HCRTR1): Homogeneous Time Resolved Fluorescence (HTRF)-based cell-based dose response assay for antagonists of the orexin 2 receptor (OX2R; HCRTR2), run by assay provider.
[23] = target: T2, Orexin/Hypocretin receptor type 1; assay: as §1, with “Homogeneous Time Resolved Fluorescence (HTRF)-based” for “Fluorescence-based”
[24] = target: BDNF/NT-3 growth factors receptor (Homo sapiens, UniProt Q16620);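 note: NTRK2 measured as one member of a broad kinome-wide kinase profiling panel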
[25] = target: High affinity nerve growth factor receptor (Homo sapiens, UniProt P04629);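 note: NTRK1 tested as one member of a kinome-wide profiling panel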
[26] = target: T3, High affinity choline transporter 1 (Homo sapiens, UniProt Q9GZV3); assay: CHT inhibitors, dose response, cell-based, 10-point CRC, membrane potential dye (AID 588401);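 note: membrane potential dye fluorescence of choline-evoked depolarization via CHT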
T3 sequence (Q9GZV3 whole entry): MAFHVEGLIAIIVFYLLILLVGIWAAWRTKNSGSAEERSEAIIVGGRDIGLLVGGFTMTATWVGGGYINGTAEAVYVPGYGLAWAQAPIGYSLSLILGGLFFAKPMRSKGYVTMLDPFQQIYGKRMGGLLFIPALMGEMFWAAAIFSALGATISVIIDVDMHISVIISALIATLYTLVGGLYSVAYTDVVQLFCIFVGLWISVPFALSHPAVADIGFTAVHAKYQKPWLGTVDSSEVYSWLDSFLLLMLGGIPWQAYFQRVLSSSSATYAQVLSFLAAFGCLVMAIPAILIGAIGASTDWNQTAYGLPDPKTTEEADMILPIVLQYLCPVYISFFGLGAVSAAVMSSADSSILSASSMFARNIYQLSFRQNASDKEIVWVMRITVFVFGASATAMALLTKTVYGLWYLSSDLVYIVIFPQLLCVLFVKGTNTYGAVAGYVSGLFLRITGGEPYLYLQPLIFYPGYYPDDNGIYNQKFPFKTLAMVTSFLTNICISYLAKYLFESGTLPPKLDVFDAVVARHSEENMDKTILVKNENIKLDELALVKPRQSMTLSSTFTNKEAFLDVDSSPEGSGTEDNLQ

[27] = target: T3, High affinity choline transporter 1; assay: CHT inhibitors, dose response, cell-based, 5-point CRC, membrane potential dye (AID 504840)
[28] = target: Dual specificity protein kinase CLK4 (Homo sapiens, UniProt Q9HAZ1)
[29] = target: Vascular endothelial growth factor receptor 1 (Homo sapiens, UniProt P17948);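 note: measured within a kinome-wide profiling panel, FLT1 as the panel member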
[30] = target: Leucine-rich repeat serine/threonine-protein kinase 2 (Homo sapiens, UniProt Q5S007);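 note: value from a broad kinome-wide panel profiling study in which LRRK2 was one of the kinases tested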

T1 sequence (O43614 whole entry): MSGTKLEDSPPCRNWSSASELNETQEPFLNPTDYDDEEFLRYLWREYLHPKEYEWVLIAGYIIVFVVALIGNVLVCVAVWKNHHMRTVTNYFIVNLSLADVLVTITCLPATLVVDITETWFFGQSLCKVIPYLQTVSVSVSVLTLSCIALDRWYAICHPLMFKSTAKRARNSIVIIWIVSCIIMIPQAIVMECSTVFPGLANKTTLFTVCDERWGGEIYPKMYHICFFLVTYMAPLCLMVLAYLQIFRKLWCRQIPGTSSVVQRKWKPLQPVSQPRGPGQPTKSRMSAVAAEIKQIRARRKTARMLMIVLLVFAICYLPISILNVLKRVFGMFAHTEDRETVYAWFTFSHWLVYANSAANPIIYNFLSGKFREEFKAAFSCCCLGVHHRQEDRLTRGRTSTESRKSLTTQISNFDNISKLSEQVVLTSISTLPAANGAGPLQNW
Receptor-type tyrosine-protein kinase FLT3, sequence (P36888 whole entry): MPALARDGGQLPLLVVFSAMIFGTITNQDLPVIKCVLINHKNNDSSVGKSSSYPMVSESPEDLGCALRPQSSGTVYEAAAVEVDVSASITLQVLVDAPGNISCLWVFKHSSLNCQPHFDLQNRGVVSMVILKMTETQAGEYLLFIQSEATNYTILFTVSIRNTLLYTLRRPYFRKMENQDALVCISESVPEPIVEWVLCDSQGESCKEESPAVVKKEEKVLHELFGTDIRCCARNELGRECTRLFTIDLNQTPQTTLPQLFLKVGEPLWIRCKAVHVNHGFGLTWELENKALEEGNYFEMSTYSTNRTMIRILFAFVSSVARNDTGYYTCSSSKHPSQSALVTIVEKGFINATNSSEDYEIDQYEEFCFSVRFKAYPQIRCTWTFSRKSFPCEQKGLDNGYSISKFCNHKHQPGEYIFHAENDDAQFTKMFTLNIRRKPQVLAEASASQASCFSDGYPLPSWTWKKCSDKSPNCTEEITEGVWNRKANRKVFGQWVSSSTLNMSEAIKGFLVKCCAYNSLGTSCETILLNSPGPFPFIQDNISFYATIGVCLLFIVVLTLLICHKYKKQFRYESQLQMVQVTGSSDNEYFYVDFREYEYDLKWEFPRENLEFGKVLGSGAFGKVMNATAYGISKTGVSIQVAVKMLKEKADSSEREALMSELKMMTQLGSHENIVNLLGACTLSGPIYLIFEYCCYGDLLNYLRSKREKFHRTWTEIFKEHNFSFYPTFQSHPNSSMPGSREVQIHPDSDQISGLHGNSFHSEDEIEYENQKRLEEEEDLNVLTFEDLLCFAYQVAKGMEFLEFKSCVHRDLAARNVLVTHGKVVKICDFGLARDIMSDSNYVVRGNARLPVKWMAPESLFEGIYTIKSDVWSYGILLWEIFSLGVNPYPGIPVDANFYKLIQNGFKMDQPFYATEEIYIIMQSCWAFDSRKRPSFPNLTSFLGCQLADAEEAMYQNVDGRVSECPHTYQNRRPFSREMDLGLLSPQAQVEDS
Fibroblast growth factor receptor 1, sequence (P11362 whole entry): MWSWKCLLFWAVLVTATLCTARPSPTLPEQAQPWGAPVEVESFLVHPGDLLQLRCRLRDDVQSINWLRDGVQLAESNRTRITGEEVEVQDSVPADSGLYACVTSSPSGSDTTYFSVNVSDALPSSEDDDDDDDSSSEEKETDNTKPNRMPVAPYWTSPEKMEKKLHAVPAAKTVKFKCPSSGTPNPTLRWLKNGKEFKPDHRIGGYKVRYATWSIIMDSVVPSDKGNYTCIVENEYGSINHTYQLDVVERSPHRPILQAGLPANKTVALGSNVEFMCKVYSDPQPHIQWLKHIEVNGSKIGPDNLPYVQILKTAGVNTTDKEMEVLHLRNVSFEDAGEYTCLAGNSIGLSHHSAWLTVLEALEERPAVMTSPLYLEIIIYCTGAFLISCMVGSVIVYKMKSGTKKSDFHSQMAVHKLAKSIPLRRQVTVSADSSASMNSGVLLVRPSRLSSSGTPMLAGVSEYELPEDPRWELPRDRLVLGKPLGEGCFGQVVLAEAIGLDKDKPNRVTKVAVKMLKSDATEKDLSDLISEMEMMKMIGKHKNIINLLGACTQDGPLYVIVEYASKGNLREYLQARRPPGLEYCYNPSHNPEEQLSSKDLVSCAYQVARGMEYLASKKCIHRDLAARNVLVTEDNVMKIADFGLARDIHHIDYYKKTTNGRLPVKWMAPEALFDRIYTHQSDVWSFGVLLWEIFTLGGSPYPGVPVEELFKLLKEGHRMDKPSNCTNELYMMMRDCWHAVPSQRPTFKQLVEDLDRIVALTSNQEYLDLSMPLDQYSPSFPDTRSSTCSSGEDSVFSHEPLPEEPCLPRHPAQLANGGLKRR
Serine/threonine-protein kinase PLK1, sequence (P53350 whole entry): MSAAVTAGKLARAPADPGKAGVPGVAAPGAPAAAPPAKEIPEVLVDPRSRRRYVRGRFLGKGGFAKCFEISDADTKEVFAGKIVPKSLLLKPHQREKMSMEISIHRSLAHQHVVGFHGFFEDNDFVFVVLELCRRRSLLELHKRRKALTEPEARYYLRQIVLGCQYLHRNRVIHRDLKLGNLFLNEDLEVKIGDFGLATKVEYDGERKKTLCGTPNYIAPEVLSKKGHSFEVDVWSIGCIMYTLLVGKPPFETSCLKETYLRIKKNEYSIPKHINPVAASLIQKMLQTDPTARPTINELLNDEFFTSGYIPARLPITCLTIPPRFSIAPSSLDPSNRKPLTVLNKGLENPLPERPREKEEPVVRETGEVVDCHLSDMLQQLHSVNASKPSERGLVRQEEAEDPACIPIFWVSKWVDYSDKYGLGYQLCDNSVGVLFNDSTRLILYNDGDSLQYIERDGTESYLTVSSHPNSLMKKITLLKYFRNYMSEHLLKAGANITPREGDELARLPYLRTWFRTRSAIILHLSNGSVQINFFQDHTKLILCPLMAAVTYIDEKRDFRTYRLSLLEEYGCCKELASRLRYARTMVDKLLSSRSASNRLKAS
Vascular endothelial growth factor receptor 1, sequence (P17948 whole entry): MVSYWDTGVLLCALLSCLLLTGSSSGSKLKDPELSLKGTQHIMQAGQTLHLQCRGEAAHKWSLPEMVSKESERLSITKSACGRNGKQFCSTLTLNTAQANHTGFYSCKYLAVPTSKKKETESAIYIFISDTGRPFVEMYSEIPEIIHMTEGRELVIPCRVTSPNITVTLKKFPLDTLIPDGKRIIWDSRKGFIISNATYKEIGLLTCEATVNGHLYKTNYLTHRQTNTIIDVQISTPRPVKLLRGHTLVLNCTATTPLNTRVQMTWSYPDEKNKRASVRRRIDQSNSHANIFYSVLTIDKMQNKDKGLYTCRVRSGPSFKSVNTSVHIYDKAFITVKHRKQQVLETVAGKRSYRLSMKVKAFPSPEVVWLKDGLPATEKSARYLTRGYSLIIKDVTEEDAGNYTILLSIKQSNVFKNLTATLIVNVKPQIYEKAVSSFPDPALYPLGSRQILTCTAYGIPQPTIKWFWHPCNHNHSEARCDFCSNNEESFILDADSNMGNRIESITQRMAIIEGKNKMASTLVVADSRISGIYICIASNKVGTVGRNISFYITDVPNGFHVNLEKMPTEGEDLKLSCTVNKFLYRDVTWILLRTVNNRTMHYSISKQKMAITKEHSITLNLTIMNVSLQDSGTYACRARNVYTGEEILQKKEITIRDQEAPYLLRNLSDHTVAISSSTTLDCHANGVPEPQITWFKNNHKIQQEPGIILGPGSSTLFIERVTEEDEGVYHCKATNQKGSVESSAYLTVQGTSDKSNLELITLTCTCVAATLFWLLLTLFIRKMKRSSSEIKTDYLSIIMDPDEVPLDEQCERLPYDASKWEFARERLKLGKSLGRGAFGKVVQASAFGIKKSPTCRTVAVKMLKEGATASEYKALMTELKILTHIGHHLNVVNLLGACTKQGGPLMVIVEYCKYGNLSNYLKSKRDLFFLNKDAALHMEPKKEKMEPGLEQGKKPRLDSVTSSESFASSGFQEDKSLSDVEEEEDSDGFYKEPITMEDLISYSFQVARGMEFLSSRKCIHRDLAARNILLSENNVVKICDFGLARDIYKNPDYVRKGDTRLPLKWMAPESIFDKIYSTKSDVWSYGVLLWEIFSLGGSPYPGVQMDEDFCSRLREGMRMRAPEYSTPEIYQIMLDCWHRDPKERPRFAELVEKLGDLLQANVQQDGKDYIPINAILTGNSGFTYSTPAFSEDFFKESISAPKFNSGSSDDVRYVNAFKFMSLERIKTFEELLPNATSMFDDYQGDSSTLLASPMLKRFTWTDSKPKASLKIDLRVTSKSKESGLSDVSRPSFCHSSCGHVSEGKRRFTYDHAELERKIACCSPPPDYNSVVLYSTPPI
Serine/threonine-protein kinase pim-1, sequence (P11309 whole entry): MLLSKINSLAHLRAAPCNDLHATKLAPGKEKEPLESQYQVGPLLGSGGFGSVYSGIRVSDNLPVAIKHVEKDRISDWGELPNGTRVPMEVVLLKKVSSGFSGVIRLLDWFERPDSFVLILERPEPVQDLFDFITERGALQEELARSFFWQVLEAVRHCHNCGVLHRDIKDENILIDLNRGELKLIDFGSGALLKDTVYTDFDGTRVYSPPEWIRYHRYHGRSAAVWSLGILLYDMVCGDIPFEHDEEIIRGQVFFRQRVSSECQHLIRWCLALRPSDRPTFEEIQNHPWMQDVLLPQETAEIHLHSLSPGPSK
RAC-gamma serine/threonine-protein kinase, sequence (Q9Y243 whole entry): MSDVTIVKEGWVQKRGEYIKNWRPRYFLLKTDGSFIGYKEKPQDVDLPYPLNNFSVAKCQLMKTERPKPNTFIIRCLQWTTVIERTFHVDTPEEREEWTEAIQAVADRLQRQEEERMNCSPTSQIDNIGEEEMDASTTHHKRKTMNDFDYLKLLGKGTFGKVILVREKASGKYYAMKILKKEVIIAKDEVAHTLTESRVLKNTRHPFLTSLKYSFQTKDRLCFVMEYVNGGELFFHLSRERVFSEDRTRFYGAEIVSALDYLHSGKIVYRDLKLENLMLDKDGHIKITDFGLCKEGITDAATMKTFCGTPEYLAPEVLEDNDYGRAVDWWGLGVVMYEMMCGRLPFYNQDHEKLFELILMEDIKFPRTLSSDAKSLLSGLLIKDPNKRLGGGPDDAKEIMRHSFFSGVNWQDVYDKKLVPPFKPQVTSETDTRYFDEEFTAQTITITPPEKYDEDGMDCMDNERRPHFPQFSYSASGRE

With `O=C(O)C1CN(Cc2ccc(CCc3cccc(C(F)(F)F)c3)cc2)C1` the Ki [1] was 3.16 µM (active).

In the case of `Nc1n[nH]c2c(Cl)cccc12`, the Ki [2] is reported as > 79.4 µM (inactive), the Ki [3] is reported as > 50.1 µM (inactive) and the Ki [4] is reported as > 79.4 µM (inactive). For the same compound, the Ki [5] was > 31.6 µM (inactive), the Ki [6] was > 100 µM (inactive) and the Ki [7] was > 79.4 µM (inactive). The Ki [8] was 25.1 µM (active), the Ki [9] was > 50.1 µM (inactive) and the Ki [10] was 2.51 µM (active). The Ki [11] was 10 µM (active), the Ki [12] was > 79.4 µM (inactive) and the Ki [13] was > 39.8 µM (inactive). The Ki [14] was > 100 µM (inactive).

For `Cn1cc(Nc2ncc(Br)c(Nc3ccccc3Cl)n2)cn1`, the Ki [15] was 1 µM (active) and the Ki [16] was 0.0631 µM (active).

With `CS(=O)(=O)Nc1cc2c(cc1Cl)NC(=O)Nc1cnc(C#N)c(n1)OCCCCCO2` the Ki [17] was > 7.94 µM (inactive).

For `Sc1nnc(-c2cc(-c3ccccc3)[nH]n2)n1/N=C/c1cccs1`, the IC50 [18] was > 88.8 µM (inactive), the IC50 [19] was > 49.7 µM (inactive) and the IC50 [20] was > 49.7 µM (inactive). The IC50 [21] was > 66.2 µM (inactive), the IC50 [22] was > 50 µM (inactive) and the IC50 [23] was 8.08 µM (active).

With `COc1ccc(COc2ccc(Cc3cnc(N)nc3N)cc2OC)cc1` [GW632580X] the Ki [24] was 0.158 µM (active) and the Ki [25] was 1.58 µM (active).

In the case of `Cc1ccc(C)[n+](CC(=O)c2ccc(-c3ccccc3)cc2)c1`, the IC50 [26] is reported as 10.8 µM (active) and the IC50 [27] is reported as 10.3 µM (active).

With `CC(C)(C)c1ccc2nc(-c3n[nH]c4ccc(Br)cc34)[nH]c2c1` the Ki [9] was 3.16 µM (active), the Ki [28] was 1.26 µM (active) and the Ki [10] was 2.51 µM (active).

In the case of `COc1ccc(CNC(=O)c2sc3nc(C)cc(C)c3c2N)cc1`, the Ki [29] is reported as 3.16 µM (active) and the Ki [30] is reported as 1 µM (active).
